Values joined by “and” are separate entries in the source; they are usually repeats but may differ in a detail not shown here. Equal entries are not always repeated.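 Five compound concentrations were applied to cells in 96-well plates for 48 hours; endpoints were derived by simple linear interpolation of the resulting dose-response curve. GI50 marks 50% less growth. Definition used: TGI = concentration required for complete inhibition of growth.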
Key:
Assay in all cases: NCI anticancer screen, dose series, 48 h
[1] = test system: CAKI-1 renal
[2] = test system: K-562 leukemia
[3] = test system: RXF 393 renal
[4] = test system: HL-60(TB) leukemia
[5] = test system: LOX IMVI melanoma
[6] = test system: MDA-MB-435
[7] = test system: A498 renal
[8] = test system: NCI-H226 lung
[9] = test system: HS 578T breast
[10] = test system: EKVX NSCLC

Molecule `COc1cc2c(c(OC)c1OC)-c1ccc(OC)c(=O)cc1[C@@H](NC(=O)CCl)CC2` has a GI50 [1] of 0.0386 µM, a TGI [1] of 21.2 µM and a GI50 [2] of less than 0.01 µM. It also gave a TGI [2] greater than 100 µM, a GI50 [3] of less than 0.01 µM and a TGI [3] of 19.5 µM. The GI50 [4] was less than 0.01 µM, the TGI [4] was less than 0.0136 µM and the GI50 [5] was less than 0.01 µM. For the same molecule, the GI50 [6] was less than 0.01 µM, the TGI [6] was less than 0.01 µM and the GI50 [7] was less than 0.01 µM. For the same molecule, the TGI [7] was 0.164 µM, the GI50 [8] was 0.0357 µM and the TGI [8] was 10.9 µM. It also gave a GI50 [9] of less than 0.01 µM, a TGI [9] greater than 100 µM and a GI50 [10] of less than 0.0191 µM. It also gave a TGI [10] of 23.7 µM.

Work on `COc1ccc(-c2cc(-c3ccc(Nc4nc(Nc5ccc(Cl)cc5)nc(Nc5ccc(Cl)cc5)n4)cc3)no2)cc1` yielded a GI50 [1] of 15.5 µM, a TGI [1] of 62.3 µM and a GI50 [2] of 2.96 µM. For the same molecule, the TGI [2] was 18.5 µM, the GI50 [3] was 3.67 µM and the TGI [3] was 20.3 µM. The GI50 [4] was 1.87 µM, the TGI [4] was 12.1 µM and the GI50 [5] was 12.2 µM. It also gave a TGI [5] of 34.9 µM, a GI50 [6] of 10.3 µM and a TGI [6] of 37 µM. For the same molecule, the GI50 [7] was 14 µM, the TGI [7] was 61.1 µM and the GI50 [8] was 19.8 µM. For the same molecule, the TGI [8] was 49.2 µM, the GI50 [9] was 20.3 µM and the TGI [9] was greater than 100 µM. For the same molecule, the GI50 [10] was 10.2 µM and the TGI [10] was 85.6 µM.

Molecule `COc1cc(N2CCC(N3CCN(C)CC3)CC2)ccc1Nc1ncc(Cl)c(Nc2ccccc2P(C)(C)=O)n1` has a GI50 [1] of 1.99 µM, a TGI [1] of 9.58 µM and a GI50 [2] of 3.45 µM. The TGI [2] was greater than 100 µM, the GI50 [3] was 0.642 µM and the TGI [3] was 2.4 µM. The GI50 [4] was 1.67 µM, the TGI [4] was greater than 35.6 µM and the GI50 [5] was 2.8 µM. It also gave a GI50 [6] of 2.94 µM, a TGI [6] greater than 100 µM and a GI50 [7] of 0.305 µM. It also gave a TGI [7] of 1.12 µM, a GI50 [8] of 0.417 µM and a TGI [8] of 5.21 µM. The GI50 [9] was 2.46 µM, the TGI [9] was 24.1 µM and the GI50 [10] was 0.472 µM. For the same molecule, the TGI [10] was greater than 100 µM.

Work on `COc1ccc(-c2coc3ncnc(N)c23)cc1` yielded a GI50 [1] greater than 25 µM, a TGI [1] greater than 25 µM and a GI50 [2] greater than 25 µM. For the same molecule, the TGI [2] was greater than 25 µM, the GI50 [3] was greater than 25 µM and the TGI [3] was greater than 25 µM. The GI50 [4] was greater than 25 µM, the TGI [4] was greater than 25 µM and the GI50 [5] was greater than 25 µM. It also gave a TGI [5] greater than 25 µM, a GI50 [6] greater than 25 µM and a TGI [6] greater than 25 µM. It also gave a GI50 [7] of 13.7 µM, a TGI [7] greater than 25 µM and a GI50 [8] greater than 25 µM. For the same molecule, the TGI [8] was greater than 25 µM, the GI50 [9] was greater than 25 µM and the TGI [9] was greater than 25 µM. For the same molecule, the GI50 [10] was greater than 25 µM and the TGI [10] was greater than 25 µM.

`Nc1nc(N)c2nc(CNc3ccc(C(=O)CC(CCC(=O)O)C(=O)O)cc3)cnc2n1` (stereo not given) gave a GI50 [1] of 0.0412 µM, a TGI [1] greater than 100 µM and a GI50 [2] of 0.0406 µM. For the same molecule, the TGI [2] was greater than 100 µM, the GI50 [3] was greater than 100 µM and the TGI [3] was greater than 100 µM. The GI50 [4] was less than 0.018 µM, the TGI [4] was greater than 100 µM and the GI50 [5] was less than 0.0229 µM. The TGI [5] was greater than 100 µM, the GI50 [6] was 0.137 µM and the TGI [6] was greater than 100 µM. The GI50 [7] was 3.15 µM, the TGI [7] was greater than 100 µM and the GI50 [8] was 1.07 µM. For the same molecule, the TGI [8] was greater than 100 µM, the GI50 [9] was greater than 100 µM and the TGI [9] was greater than 100 µM. For the same molecule, the GI50 [10] was 0.517 µM and the TGI [10] was greater than 100 µM.

With `COc1cccc(-c2nn(-c3ccccc3)cc2-c2ccnc(NCCNS(=O)(=O)c3ccc(C(F)(F)F)cc3)c2)c1` the GI50 [1] was 3.64 µM, the TGI [1] was greater than 100 µM and the GI50 [2] was 2.87 µM. It also gave a TGI [2] of 19.4 µM, a GI50 [3] of 2.1 µM and a TGI [3] of 5.5 µM. For the same molecule, the GI50 [4] was 1.97 µM, the TGI [4] was 5.63 µM and the GI50 [5] was 1.84 µM. The TGI [5] was 3.78 µM, the GI50 [6] was 3.23 µM and the TGI [6] was 17.5 µM. The GI50 [7] was 1.66 µM, the TGI [7] was 6.5 µM and the GI50 [8] was 5.77 µM. The TGI [8] was greater than 100 µM, the GI50 [9] was 4.07 µM and the TGI [9] was greater than 100 µM. For the same molecule, the GI50 [10] was 3.16 µM and the TGI [10] was greater than 100 µM.

`Cc1cc(N(CCOS(C)(=O)=O)CCOS(C)(=O)=O)ccc1C=Nc1ccc(-c2csc(-c3ccccc3)n2)c(Cl)c1` was tested, and the TGI [1] was 1.32 µM, the TGI [2] was 51 µM and the TGI [3] was 7.65 µM. The TGI [4] was 19.8 µM, the TGI [5] was 28.3 µM and the TGI [6] was 38 µM. For the same molecule, the TGI [7] was 4.67 µM, the TGI [8] was 45.2 µM and the TGI [9] was 49.8 µM. For the same molecule, the TGI [10] was 29.1 µM.

With `CN1CCN(C(=O)c2ccc(NC(=O)Nc3ccc(N(C)c4ccnc(Nc5ccc(CS(C)(=O)=O)cc5)n4)cc3)cc2)CC1` the GI50 [1] was greater than 25 µM, the TGI [1] was greater than 25 µM and the GI50 [2] was 12.6 µM. The TGI [2] was greater than 25 µM, the GI50 [3] was 24.2 µM and the TGI [3] was greater than 25 µM. The GI50 [4] was greater than 19.4 µM, the TGI [4] was greater than 25 µM and the GI50 [5] was 10 µM. It also gave a TGI [5] greater than 25 µM, a GI50 [6] greater than 25 µM and a TGI [6] greater than 25 µM. For the same molecule, the GI50 [7] was greater than 25 µM, the TGI [7] was greater than 25 µM and the GI50 [8] was 6.79 µM. The TGI [8] was greater than 25 µM, the GI50 [9] was 4.62 µM and the TGI [9] was greater than 22.1 µM. The GI50 [10] was greater than 25 µM and the TGI [10] was greater than 25 µM.

With `NC1=NC(=O)N2CC12` (stereo not given) the GI50 [1] was 35.1 µM, the TGI [1] was > 100 µM and 118 µM and the GI50 [2] was 38.9 µM. For the same molecule, the TGI [2] was greater than 100 µM, the TGI [3] was > 100 µM and 334 µM and the GI50 [4] was 13.7 µM. The GI50 [5] was 38.2 µM and 61.2 µM, the TGI [5] was > 100 µM and 134 µM and the GI50 [6] was 90.9 µM and 78 µM. The TGI [6] was 194 µM, the GI50 [7] was 228 µM and the TGI [7] was > 100 µM and 875 µM. The GI50 [8] was 184 µM, the TGI [8] was > 100 µM and 896 µM and the GI50 [9] was 316 µM. For the same molecule, the TGI [9] was 1720 µM, the GI50 [10] was 123 µM and the TGI [10] was > 100 µM and 603 µM.

For `CNC(=O)c1ccc(Nc2ncc(C(F)(F)F)c(NCc3nccnc3N(C)S(C)(=O)=O)n2)cc1`, the GI50 [1] was 1.8 µM and 1.41 µM and 1.88 µM, the TGI [1] was > 10 µM and 8.35 µM and 12.1 µM and the GI50 [2] was 4.84 µM and 3.2 µM and 3.42 µM. For the same molecule, the TGI [2] was > 10 µM and 17.7 µM and > 61.1 µM, the GI50 [3] was 0.637 µM and 1.39 µM and 0.575 µM and the TGI [3] was 2.74 µM and 3.76 µM and 2.85 µM. For the same molecule, the GI50 [4] was 2.02 µM and 2.19 µM and 2.49 µM, the TGI [4] was 8.1 µM and 6.09 µM and 7.7 µM and the GI50 [5] was 2.1 µM and 2.06 µM and 2.02 µM. The TGI [5] was > 10 µM and 8.03 µM and 8.91 µM, the GI50 [6] was 3.55 µM and 3.05 µM and 2.67 µM and the TGI [6] was > 10 µM and 13.6 µM and 15.2 µM. For the same molecule, the GI50 [7] was 2.02 µM and 1.59 µM and 1.39 µM, the TGI [7] was 5.61 µM and 3.89 µM and 4.18 µM and the GI50 [8] was 1.26 µM and 2.71 µM and 3.28 µM. The TGI [8] was 6.67 µM and 12 µM and 18.2 µM, the GI50 [9] was 0.283 µM and 2.44 µM and 1.5 µM and the TGI [9] was 7.19 µM and 9.3 µM and 8.29 µM. The GI50 [10] was 2.49 µM and 2.64 µM and the TGI [10] was > 10 µM and 10.8 µM.

`C=C(C)C(=O)NC(N)=NC#N` was tested, and the TGI [1] was 44.7 µM and 82.9 µM, the TGI [2] was 51.5 µM and 58.5 µM and the GI50 [3] was 63 µM. The TGI [3] was 65.7 µM and 200 µM, the TGI [4] was 42.6 µM and 50.3 µM and the GI50 [5] was 28.6 µM. For the same molecule, the TGI [5] was 96 µM, the TGI [6] was 259 µM and the GI50 [7] was 201 µM. The TGI [7] was > 46.4 µM and 345 µM, the TGI [8] was 330 µM and the TGI [9] was 797 µM. For the same molecule, the GI50 [10] was 165 µM and the TGI [10] was > 90 µM and 392 µM.

— PubChem BioAssay (NCI)
